Measured values from paper PMC9869995, “Discovery of benzochromene derivatives first example with dual cytotoxic activity against the resistant cancer cell MCF-7/ADR and inhibitory effect of the P-glycoprotein expression levels” (Journal of Enzyme Inhibition and Medicinal Chemistry, 2023).

Tests used:
HCT-116 = experiment: MTT cell viability assay, HCT-116; assay type: cell-based; settings: Homo sapiens, 24 h incubation, mean ± standard error
Source text: (§1) According to previous reports regarding the cytotoxic features of a numerous array of benzochromene scaffolds, compounds 4a − z have been elected to explore their cytotoxic ability against three tumour cell lines, including HCT-116 (colon cancer), MCF-7 (breast cancer), and HepG-2 (hepatocellular cancer), and employing the 3–(4,5-dimethylthiazol-2-yl)-2,5-diphenyl tetrazolium bromide (MTT) colorimetric assay as described in literature. Judges choice of such cell lines has been stimulated by the acknowledged antitumor performance of a substantial number of 1H-benzo[f]chromene and 4H-benzo[h]chromene molecules towards the asserted cell lines. […] Moreover, benzochromene derivatives with highly cytotoxic behaviour, 4a − d, 4g, 4i, 4k, 4n, 4q, 4 u, and 4w, are subjected to further inspection against ADR-resistant human breast cancer cells (MCF-7/ADR) and the two normal cell lines, HFL-1 and human diploid fibroblasts (WI-38). […] Also, the results are illustrated in Table 4.
(§2) The cytotoxic activity was appraised, using the 3–(4,5-dimethylthiazol-2-yl)-2,5-diphenyl-tetrazolium bromide (MTT) colorimetric assay, as reported previously[57] and ELISA assay for MCF-7/ADR[75].

HFL-1 = experiment: Cytotoxicity against normal cell line HFL-1; assay type: cell-based; settings: Homo sapiens, HFL1, 24 h, mean ± standard error
Source text: as §1, §2

MCF-7/ADR = experiment: Cytotoxicity against ADR-resistant breast cancer cells; assay type: cell-based, human; settings: 24 h exposure, mean ± standard error
Source text: as §1, §2

HepG-2 = experiment: MTT cell viability assay, HepG-2; assay type: cell-based; settings: Homo sapiens, HepG2, 24 h incubation, mean ± standard error
Source text: as §1
(§3) The tumour cell lines MCF-7, HepG-2, and […] were obtained from the American Type Culture Collection (ATCC, Rockville, MD). The cells were grown on RPMI-1640 medium supplemented with 10% inactivated foetal calf serum and 50 µg/mL gentamycin. The cells were maintained at 37 °C in a humidified atmosphere with 5% CO2 and were subculture two to three times a week.
as §2

MCF-7 = experiment: MTT cell viability assay, MCF-7; assay type: cell-based; settings: Homo sapiens, MCF7, 24 h incubation, mean ± standard error
Source text: as §1, §3, §2

P-gp [1] = target: T1, P-gp (Homo sapiens, UniProt P08183); experiment: Rhodamine 123 accumulation assay in MCF-7/ADR cells; assay type: cell-based; settings: 4 h compound, then 5.25 μM Rho123 30 min
T1 construct: endogenous in cells; host or cells: MCF-7/ADR (Adriamycin-resistant human breast cancer cells)
Method: Furthermore, the reversion of P-gp mediated multidrug resistance may be achieved by down-regulation of P-gp expression and or inhibition of P-gp efflux function.
Briefly, resistant cancer cells were harvested, washed twice, and counted. […] of each well was measured using Spectramax Gemini fluorescence microplate reader (Molecular Devices, Sunnyvale, CA). The total content of Rhodamine in each sample was determined by comparison with a Rhodamine standard curve.

P-gp [2] = experiment: P-gp content in MCF-7/ADR cell lysate by ELISA; assay type: cell-based, human; settings: MCF-7/ADR lysate; for %Reduction of P-gp expression / IC50: 48 h; for IC50 at 48 h: human, MCF-7/ADR cells (cell lysate)
Method: P-gp pumps multiple types of drugs out of the cell, using energy generated from adenosine triphosphate (ATP), and confers MDR on cancer cells. It is one of the noteworthy problems in malignant tumour clinical therapeutics. […].
The content of P-gp in the MCF-7/ADR cell lysates after incubation with varying conc. (12.5–100 µM) of tested compounds 4b, 4c, 4d, 4q, and 4w following exposure for 48 h. was determined using commercial human P-gp ELISA Kit (MBS2506188, MyBioSource Inc., San Diego, CA). Absorption was recorded at 450 nm with a Spectramax Gemini fluorescence microplate reader (Molecular Devices, Sunnyvale, CA).

WI-38 = experiment: Cytotoxicity against normal cell line WI-38; assay type: cell-based; settings: Homo sapiens, 24 h, mean ± standard error
Source text: as §1, §2

MCF-7/ADR cells = experiment: Annexin V-FITC/PI apoptosis assay; assay type: cell-based, human; settings: IC50 value, 24 h, untreated cells 2%
Source text: Several lines of evidence indicate that many anticancer compounds exerted their effects by blocking the cell cycle progression, by inducing apoptosis, or the combined effect of both[67]. Also, P-gp inhibits apoptosis by preventing the release of cytochrome c which is mediated by the intrinsic mitochondrial pathway. To further assess the pivotal relation of the newly synthesised MCF-7/ADR anticancer compounds and apoptosis, phosphatidylserine (PS) translocation to the cell membrane as a marker for apoptosis was measured by the means of the Annexin V/PI double staining flow cytometric assay.
Apoptosis assay was performed with an Annexin V-FITC/PI double staining apoptosis detection kit (K101, Biovison, Milpitas, CA) using a flow cytometer. MCF-7/ADR cancer cells treated with different newly synthesised compounds (IC50 value) were harvested by trypsinization, washed twice with 4 °C PBS, and re-suspended in binding buffer. Annexin V-FITC and PI solutions were then added to stain the cells before analysis by flow cytometry A minimum of 10,000 cells per sample were acquired. Annexin V-FITC binding (FL1) and PI (FL2) were analysed using Cell Quest Pro software (BD Biosciences).

[3] = Homo sapiens, NCI/ADR-RES, 24 h

T1 sequence (P08183 whole entry): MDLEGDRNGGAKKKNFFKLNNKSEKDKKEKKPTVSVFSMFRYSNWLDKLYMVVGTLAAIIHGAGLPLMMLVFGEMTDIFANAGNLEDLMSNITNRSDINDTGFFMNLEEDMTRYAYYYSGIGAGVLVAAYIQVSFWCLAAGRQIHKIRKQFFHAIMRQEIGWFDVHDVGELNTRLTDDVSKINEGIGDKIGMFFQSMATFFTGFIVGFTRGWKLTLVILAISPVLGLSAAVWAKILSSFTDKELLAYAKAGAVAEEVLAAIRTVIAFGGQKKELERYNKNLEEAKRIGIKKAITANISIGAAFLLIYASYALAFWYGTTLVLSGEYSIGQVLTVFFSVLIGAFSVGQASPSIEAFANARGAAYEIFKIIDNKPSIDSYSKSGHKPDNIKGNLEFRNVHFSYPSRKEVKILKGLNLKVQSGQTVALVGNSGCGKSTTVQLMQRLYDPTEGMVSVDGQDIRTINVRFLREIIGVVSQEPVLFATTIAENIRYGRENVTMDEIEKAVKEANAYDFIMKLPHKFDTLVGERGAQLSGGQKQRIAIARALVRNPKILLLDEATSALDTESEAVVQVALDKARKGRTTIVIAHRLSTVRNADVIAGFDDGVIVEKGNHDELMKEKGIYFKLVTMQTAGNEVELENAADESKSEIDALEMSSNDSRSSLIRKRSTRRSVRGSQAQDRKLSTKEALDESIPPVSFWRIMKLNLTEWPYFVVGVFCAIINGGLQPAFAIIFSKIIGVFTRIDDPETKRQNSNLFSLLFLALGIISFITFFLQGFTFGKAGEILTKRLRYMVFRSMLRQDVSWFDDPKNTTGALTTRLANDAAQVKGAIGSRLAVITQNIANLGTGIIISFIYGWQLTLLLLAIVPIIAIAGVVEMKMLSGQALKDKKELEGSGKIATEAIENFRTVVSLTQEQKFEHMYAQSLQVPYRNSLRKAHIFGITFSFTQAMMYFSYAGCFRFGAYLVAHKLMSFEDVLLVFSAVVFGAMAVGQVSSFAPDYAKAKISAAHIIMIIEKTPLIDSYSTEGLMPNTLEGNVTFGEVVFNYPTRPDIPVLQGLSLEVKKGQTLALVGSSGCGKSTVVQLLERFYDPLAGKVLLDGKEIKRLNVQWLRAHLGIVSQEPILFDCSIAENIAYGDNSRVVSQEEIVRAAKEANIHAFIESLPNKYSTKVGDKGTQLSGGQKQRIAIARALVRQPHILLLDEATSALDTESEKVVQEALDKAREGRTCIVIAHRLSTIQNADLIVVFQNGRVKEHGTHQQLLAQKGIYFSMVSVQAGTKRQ

Row | SMILES | IC50 (HCT-116) [µM] | IC50 (HFL-1) [µM] | IC50 (MCF-7/ADR) [µM] | IC50 (MCF-7/ADR; [3]) [µM] | IC50 (HepG-2) [µM] | IC50 (MCF-7) [µM] | IC50 (P-gp [1]) [µM] | melting point [°C] | %Reduction of P-gp expression (P-gp [2]; Conc. 12.5 µM) [%] | %Reduction of P-gp expression (P-gp [2]; Conc. 25 µM) [%] | %Reduction of P-gp expression (P-gp [2]; Conc. 50 µM) [%] | %Reduction of P-gp expression (P-gp [2]; Conc. 100 µM) [%] | IC50 at 48 h (P-gp [2]) [µM] | IC50 (WI-38) [µM] | IC50 (P-gp [2]) [µM] | total apoptosis (MCF-7/ADR cells) [%]
1 | COc1ccc2ccc3c(c2c1)C(c1ccc(Cl)cc1)C(C#N)=C(N)O3 (centres unmarked) [4d, 3-Amino-1–(4-chlorophenyl)-9-methoxy-1H-benzo[f]chromene-2-carbonitrile] | 1.9 ± 0.4 | 77.1 ± 1.1 | 12.5 ± 0.3 | 10.9 to 15.5 | 7.2 ± 0.1 | 0.6 ± 0.2 | 10.6 | 257 to 258 | 45 | 60 | 81 | 91 | 13.5 | 83 ± 1.1 |  | 
2 | COc1ccc2ccc3c(c2c1)C(c1ccc(OC)c(OC)c1)C(C#N)=C(N)O3 (centres unmarked) [4w, 3-Amino-1–(3,4-dimethoxyphenyl)-9-methoxy-1H-benzo[f]chromene-2-carbonitrile] | 6.2 ± 0.3 | 47.1 ± 0.2 | 11.5 ± 0.6 | 10.9 to 15.5 | 52.3 ± 0.4 | 2.6 ± 0.5 | 25.6 | 253 to 255 | 24 | 36 | 68 | 79 | 18.7 to 34.6 | 52.9 ± 0.3 | 32.4 | 
3 | COc1ccc2ccc3c(c2c1)C(c1cccc(Cl)c1)C(C#N)=C(N)O3 (centres unmarked) [4c, 3-Amino-1–(3-chlorophenyl)-9-methoxy-1H-benzo[f]chromene-2-carbonitrile] | 9.9 ± 0.1 | 59.5 ± 1.1 | 10.9 ± 0.2 | 10.9 to 15.5 | 11 ± 0.2 | 8.5 ± 0.6 | 23 | 262 to 263 | 26 | 40 | 70 | 84 | 18.7 to 34.6 | 61.5 ± 1.2 | 28.4 | 
4 | COc1ccc2ccc3c(c2c1)C(c1ccc(Cl)c(Cl)c1)C(C#N)=C(N)O3 (centres unmarked) [4q, 3-Amino-1–(3,4-dichlorophenyl)-9-methoxy-1H-benzo[f]chromene-2-carbonitrile] | 1.3 ± 0.1 | 75.8 ± 0.2 | 13.4 ± 0.4 | 10.9 to 15.5 | 1.5 ± 0.1 | 2.3 ± 0.1 | 39.1 | 255 to 256 | 19 | 32 | 51 | 76 | 45.3 | 72.8 ± 0.4 |  | 
5 | COc1ccc2ccc3c(c2c1)C(c1ccc(F)cc1F)C(C#N)=C(N)O3 (centres unmarked) [4k, 3-Amino-1–(2,4-difluorophenyl)-9-methoxy-1H-benzo[f]chromene-2-carbonitrile] | 4.1 ± 0.2 | 59.6 ± 0.1 | 11.5 ± 0.6 | 10.9 to 15.5 | 8.2 ± 0.6 | 3 ± 0.3 | 57.8 | 255 to 256 | 12 | 28 | 45 | 70 | 61.4 | 47.3 ± 0.2 |  | 
6 | COc1ccc2ccc3c(c2c1)C(c1ccccc1Cl)C(C#N)=C(N)O3 (centres unmarked) [4b, 3-Amino-1–(2-chlorophenyl)-9-methoxy-1H-benzo[f]chromene-2-carbonitrile] | 2.5 ± 0.2 | 71.9 ± 0.1 | 13.3 ± 0.5 | 10.9 to 15.5 | 10.7 ± 0.5 | 11.3 ± 0.1 | 20.5 | 266 to 267 | 30 | 42 | 72 | 90 | 18.7 to 34.6 | 66.7 ± 0.2 | 26.7 | 
7 | COc1cccc2c1C(=O)c1c(O)c3c(c(O)c1C2=O)C[C@@](O)(C(=O)CO)C[C@@H]3O[C@H]1C[C@H](N)[C@H](O)[C@H](C)O1 [Doxorubicin, reference compound] | 0.9 ± 0.02 |  |  |  | 1.7 ± 0.4 | 0.8 ± 0.01 |  |  |  |  |  |  | 50.9 |  |  | 30
